In PubChem BioAssay (NCI):
Where “and” joins values, the source holds several entries; their conditions need not be identical. Equal values may be shown once.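 Step 1: Grow cells in 96-well plates. Step 2: Expose to compound for 48 hours at 5 concentrations. Step 3: Interpolate endpoints linearly; if unreached, use highest concentration. GI50 is the concentration that inhibits growth by half. TGI: total growth inhibition.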

Tests used:
Assay in all cases: NCI anticancer screen, dose series, 48 h
SF-295 CNS = tested on: SF-295 CNS
ACHN renal = tested on: ACHN renal
UO-31 renal = tested on: UO-31 renal
CAKI-1 renal = tested on: CAKI-1 renal
SK-MEL-28 melanoma = tested on: SK-MEL-28 melanoma
786-0 renal = tested on: 786-0 renal
M14 melanoma = tested on: M14 melanoma
UACC-257 melanoma = tested on: UACC-257 melanoma
MDA-MB-231 breast = tested on: MDA-MB-231 breast
LOX IMVI melanoma = tested on: LOX IMVI melanoma

Structure (SMILES) | GI50 (SF-295 CNS) [nM] | TGI (SF-295 CNS) | GI50 (ACHN renal) [nM] | TGI (ACHN renal) | GI50 (UO-31 renal) | TGI (UO-31 renal) | GI50 (CAKI-1 renal) | TGI (CAKI-1 renal) | GI50 (SK-MEL-28 melanoma) [nM] | TGI (SK-MEL-28 melanoma) [µM] | GI50 (786-0 renal) [nM] | TGI (786-0 renal) [µM] | GI50 (M14 melanoma) [nM] | TGI (M14 melanoma) [µM] | GI50 (UACC-257 melanoma) [nM] | TGI (UACC-257 melanoma) [µM] | GI50 (MDA-MB-231 breast) | TGI (MDA-MB-231 breast) | TGI (LOX IMVI melanoma) [µM] | GI50 (LOX IMVI melanoma) [nM]
CCCCCCCCCCCC[N+](C)(C)Cc1ccccc1 | 2820 | 12.2 µM | 5610 | 20.4 µM | 10000 nM | 25.9 µM | 5840 nM | 24.8 µM | 2060 | 4.34 | 2370 | 6.15 | 1920 | 4.32 | 1820 | 4.25 | 1620 nM | 3.81 µM | – | –
O=C(N/C(=C\c1c(O)ccc2ccccc12)c1nc2ccccc2[nH]1)c1ccccc1 | – | – | – | > 100 µM | – | > 100 µM | – | > 100 µM | – | > 100 | – | > 100 | – | > 100 | – | > 100 | – | – | > 100 | –
CCO/C(CCn1[nH]c(=O)c(Cl)c(Cl)c1=O)=N\NC(=O)C(=O)NN | – | > 100 µM | – | > 100 µM | – | > 100 µM | – | > 100 µM | – | > 100 | – | > 100 | – | > 100 | – | > 100 | – | – | > 100 | –
CC1(C)OC2CC3COC(=O)C3CC2O1 (stereo unspecified) | – | > 100 µM | – | > 100 µM | – | > 100 µM | – | > 100 µM | – | > 100 | – | > 100 | – | > 100 | – | > 100 | – | – | > 100 | –
C#CCN(N=O)C(=O)NCCCCC(NC(=O)OCc1ccccc1)C(=O)OCc1ccccc1 (stereo unspecified) | – | > 100 µM | – | > 100 µM | – | > 100 µM | – | 56.6 µM | – | > 100 | – | > 100 | – | 68 | – | > 100 | – | – | 28 | –
O=C(Nc1cc(Cl)ccc1Cl)c1cc2cccc(Br)c2oc1=O | – | > 100 µM | – | > 100 µM | – | > 100 µM | – | – | – | > 100 | – | > 100 | – | > 100 | – | > 100 | – | – | > 100 | –
COC(NC(N)=O)C(=O)O (stereo unspecified) | – | > 100 µM | – | > 100 µM | – | > 100 µM | – | > 100 µM | – | > 100 | – | > 100 | – | > 100 | – | > 100 | – | > 100 µM | – | –
Cc1cc(Br)cc(C)c1NC(=O)C(=O)C(C(=O)c1ccncc1)C1OC(=O)c2ccccc21 (stereo unspecified) | – | – | – | > 100 µM | – | > 100 µM | – | > 100 µM | – | – | – | > 100 | – | > 100 | – | > 100 | – | – | > 100 | –
NC(=O)COc1c(Br)cc(Br)cc1Br | – | > 100 µM | – | > 100 µM | – | > 100 µM | – | > 100 µM | – | > 100 | – | > 100 | – | > 100 | – | > 100 | – | – | – | –
O=C(O)CNc1ccc(Cl)c(Cl)c1 | – | 75.9 µM | – | 53 µM | – | 71.1 µM | – | 50.3 µM | – | – | – | 92.6 | – | > 100 | – | 96.3 | – | > 100 µM | > 100 | –
CCOP(=O)(OCC)/C(C#N)=C\c1ccsc1 | – | > 100 µM | – | > 100 µM | – | > 100 µM | – | > 100 µM | – | > 100 | – | > 100 | – | > 100 | – | > 100 | – | – | > 100 | –
O=C1NC(=O)C(=Cc2c3ccccc3cc3ccccc23)C(=O)N1 | – | – | – | > 100 µM | – | > 100 µM | – | > 100 µM | – | > 100 | – | > 100 | – | > 100 | – | – | – | – | > 100 | –
COc1cc2c(c(O)c1C)C(=O)CC(c1ccccc1)O2 (stereo unspecified) | – | > 10 µM | – | > 100 µM | – | > 100 µM | – | > 100 µM | – | > 100 | – | > 100 | – | > 10 | – | > 100 | – | – | > 10 | –
CCCCC[C@H]1CC=C2C(=O)C=C[C@@H]2CC=CCCCC(=O)O[C@@H](CCCCC)CC=C2C(=O)C=C[C@@H]2CC=CCCCC(=O)O[C@@H](CCCCC)CC=C2C(=O)C=C[C@@H]2CC=CCCCC(=O)O1 | 432 | 5.13 µM | 438 | > 8.75 µM | 457 nM | 1.63 µM | – | – | 311 | 1.74 | 325 | 1.43 | 279 | 1.79 | 456 | 2.2 | 249 nM | 0.697 µM | 0.306 | 150
COC1=CC(=O)C(Br)=CC1=O | – | – | – | – | – | 31.7 µM | – | 32.4 µM | – | 34 | – | 32.9 | – | 33.5 | – | 31.1 | – | – | 34.3 | –
Cc1cc2c(c3nocc13)C(=O)c1ccccc1C2=O | – | > 100 µM | – | > 100 µM | – | > 100 µM | – | > 100 µM | – | > 100 | – | > 100 | – | > 100 | – | > 100 | – | – | > 100 | –
CN(C)CCNC(=O)c1cccc2nc3ccc4cccnc4c3nc12 | – | 3.94 µM | – | 3.27 µM | – | 2.4 µM | – | 6.37 µM | – | 2.28 | – | 10.9 | – | 3.03 | – | 1.63 | – | – | 1.51 | –
Cc1c(NC(=O)CCl)c(=O)oc2c(C)c3occc(=O)c3cc12 | – | 25.2 µM | – | 80.5 µM | – | 22.4 µM | – | 25.3 µM | – | 39.2 | – | 32.4 | – | 26 | – | 34 | – | – | – | –
CCN(CC)CCCOc1ccc2ncnc(Nc3ccc(Oc4cccc(C(F)(F)F)c4)c(Cl)c3)c2c1 | 1730 | 3.17 µM | 1070 | 2.26 µM | 1060 nM | 2.26 µM | 1400 nM | 3.1 µM | 1630 | 2.99 | 1540 | 2.95 | – | – | – | – | 1790 nM | 3.24 µM | 3.06 | 1630
CCN(CCCl)CCCCCNc1c2ccccc2nc2ccc(OC)cc12 | – | 9.68 µM | – | 3.09 µM | – | 12.7 µM | – | 16.7 µM | – | 12.1 | – | 1.63 | – | 9.74 | – | 10.8 | – | – | 1.09 | –
CC(=O)O[C@@]12CO[C@@H]1C[C@H](O)[C@@]1(C)C(=O)[C@H](O)C3=C(C)[C@@H](OC(=O)[C@H](O)[C@@H](NC(=O)OC(C)(C)C)c4ccccc4)C[C@@](O)([C@@H](OC(=O)c4ccccc4)C12)C3(C)C (stereo partly specified) | 16 | 50 µM and 16.8 µM | – | 50 µM and > 100 µM | 372 nM and 192 nM | 50 µM and 81.8 µM | 225 nM and 181 nM | 50 µM and 73.6 µM | 12700 | 50.7 | 5.49 | 50 | – | – | 32300 | > 100 | 7.51 nM and 71.7 nM | 28 µM and > 100 µM | 79 | –
